Experimental data from patent US20060148871A1, “Metabolic stabilization of substituted adamantane” (priority 2005, published 2006).

Experiments:
Format in all cases: in vitro ADME
[1] = Metabolic stability screen, human liver microsomes; settings: for HLM % turnover: 10 μM substrate, 30 min, 37° C., 1 mM NADPH
Description: (§1) Each substrate (10 μM) was incubated with microsomal protein (0.1-0.5 mg/ml) in 50 mM potassium phosphate buffer (pH 7.4) in 48-Well plate. The enzyme reaction was initiated by the addition of 1 mM NADPH, then incubated at 37° C. in a Forma Scientific incubator (Marietta, Ohio, USA) with gentle shaking. The reactions were quenched by the addition of 800 μl of ACN/MeOH (1:1, v/v), containing 0.5 μM of internal standard (IS), after 30 min incubation. Samples were then filtered by using Captiva 96-Well Filtration (Varian, Lake Forest, Calif., USA) and analyzed by LC/MS (mass spectrometry). Liver microsomal incubations were conducted in duplicate.
The parent remaining in the incubation mixture was determined by LC/MS. The LC/S system consisted of an Agilent 1100 series (Agilent Technologies, Waldbronn, Germany) and API 2000 (MDS SCIEX, Ontario, Canada). A Luna C8(2) (50×2.0 mm, particle size 3 μm, Phenomenex, Torrance, Calif., USA) was used to quantify each compound at ambient temperature. The mobile phase consisted of (A): 10 mM NH4AC (pH 3.3) and […]: 100% ACN and was delivered at a flow rate of 0.2 ml/min. Elution was achieved using a linear gradient of 0-100% B over 3 min, then held 100% B for 4 min, and returned to 100% A in 1 min. The column was equilibrated for 7 min before the next injection.
(§2) The peak area ratios (each substrate over IS) at each incubation time were expressed as the percentage of the ratios (each substrate over IS) of the control samples (0 min incubation). The parent remaining in the incubation mixture was expressed as the percentage of the values at 0 min incubation. The percentage turnover is calculated using the following equation (Y% turnover=100% […]−X% parent remaining) and is recorded as the percentage turnover in the Table 1.

[2] = In vitro metabolic half-life study, monkey liver microsomes
Description: (§3) Example 5 (1 μM) was incubated with microsomal protein (0.5-1.0 mg/ml) in 50 mM potassium phosphate buffer (pH 7.4). After 5 minutes, preincubation at 37° C. in a shaking water bath, the enzyme reaction was initiated by the addition of 1 mM NADPH. Aliquots (200 μl) were removed and added to 100 μl of ACN/MeOH (1:1, v/v), containing 0.5 μM of IS, at the following time points: 0, 5, 10, 15, 20 and 30 min. Samples were then centrifuged at 14000×g for 10 min and the supernatant was analyzed by LC/MS. Additionally, Example 5 (1 μM) was also incubated with hepatocytes in complete culture medium (Waymouth MB 752/1). The reaction was terminated at 0, 1, 3 and 6 hours with the addition of 250 μl of ACN/MeOH (1:1, v/v). Samples were centrifuged and the supernatant was analyzed by LC/MS as described above. […]
(§4) The parent remaining in the incubation mixture was determined by LC/MS. […] A Luna C8(2) (50×2.0 mm, particle size 3 μm, Phenomenex, Torrance, Calif., USA) was used to quantify each compound at ambient temperature. […]
(§5) In vitro half-life of substrate depletion was determined and converted to hepatic intrinsic clearance (Obach R Scott: Prediction of human clearance of twenty-nine drugs from hepatic microsomal intrinsic clearance data: an examination of in vitro half-life approach and nonspecific binding to microsomes. Drug metabolism and Disposition. 1999, 27:1350-1359).

[3] = In vitro metabolic half-life study, human hepatocytes; settings: 1 μM
Description: as §3, §4, §5

[4] = In vitro metabolic half-life study, human liver microsomes; settings: 1 μM
Description: as §3, §4, §5

[5] = In vitro metabolic half-life study, rat liver microsomes; settings: 1 μM
Description: as §3, §4, §5

[6] = In vitro metabolic half-life study, dog liver microsomes
Description: as §3, §4, §5

[7] = In vitro metabolic half-life study, mouse liver microsomes; settings: 1 μM
Description: as §3, §4, §5

[8] = Metabolic stability screen, rat liver microsomes; settings: 10 μM substrate, 30 min, 37° C., 1 mM NADPH
Description: as §1, §4, §2

[9] = In vitro metabolic half-life study, mouse hepatocytes; settings: 1 μM
Description: as §3, §4, §5

[10] = In vitro metabolic half-life study, monkey hepatocytes; settings: 1 μM
Description: as §3, §4, §5

[11] = In vitro metabolic half-life study, rat hepatocytes; settings: 1 μM
Description: as §3, §4, §5

[12] = In vitro metabolic half-life study, dog hepatocytes; settings: 1 μM
Description: as §3, §4, §5

[13] = Metabolic stability screen, mouse liver microsomes; settings: 10 μM substrate, 30 min, 37° C., 1 mM NADPH
Description: as §1, §4, §2

CC(C)(C(=O)NC1C2CC3CC(C2)CC1C3)c1ccc(Cl)cc1 (centres unmarked) [Example 2, N-2-adamantyl-2-(4-chlorophenyl)-2-methylpropanamide]
Metabolism in human liver microsomes (HLM), in words [1]: rapidly metabolized | HLM % turnover [1]: 84%

CC(C)(C(=O)NC1C2CC3CC(C2)CC1C3)c1ccccc1 (centres unmarked) [Example 1, N-2-adamantyl-2-methyl-2-phenylpropanamide]
Metabolism in human liver microsomes (HLM), in words [1]: rapidly metabolized | HLM % turnover [1]: 83%

O=C(NC1C2CC3CC(C2)CC1C3)C1(c2ccc(Cl)cc2)CC1 (centres unmarked) [Example 4, N-2-adamantyl-1-(4-chlorophenyl)cyclopropanecarboxamide]
Metabolism in human liver microsomes (HLM), in words [1]: rapidly metabolized | HLM % turnover [1]: 68%

O=C(NC1C2CC3CC(C2)CC1C3)C1(c2ccccc2)CC1 (centres unmarked) [Example 3, N-2-adamantyl-1-phenylcyclopropanecarboxamide]
Metabolism in human liver microsomes (HLM), in words [1]: rapidly metabolized | HLM % turnover [1]: 62%

CC(C)(C(=O)NC1C2CC3CC1CC(C(=O)O)(C3)C2)N1CCN(c2ccc(C(F)(F)F)cn2)CC1 (centres unmarked) [Example 5, E-4-{2-Methyl-2-[4-(5-trifluoromethyl-pyridin-2-yl)-piperazin-1-yl]-propionylamino}-adamantane-1-carboxylic acid]
Metabolic stability in liver microsomes, in words ([2]; monkey liver microsomes): excellent metabolic stability | Liver microsomal intrinsic clearance (CLint) ([2]; monkey microsomes, 1 μM): 31.5 mL/min/kg | Hepatocyte intrinsic clearance (CLint) [3]: 1.5 mL/min/kg | Liver microsomal intrinsic clearance (CLint) [4]: 4.83 mL/min/kg | Liver microsomal intrinsic clearance (CLint) [5]: 40 mL/min/kg | Metabolic stability in liver microsomes, in words ([6]; dog liver microsomes): excellent metabolic stability | Liver microsomal intrinsic clearance (CLint) ([6]; dog microsomes, 1 μM): 7.5 mL/min/kg | Liver microsomal intrinsic clearance (CLint) [7]: 127 mL/min/kg | RLM % turnover [8]: 0% | Hepatocyte intrinsic clearance (CLint) [9]: 13.7 mL/min/kg | Hepatocyte intrinsic clearance (CLint) [10]: 4.67 mL/min/kg | HLM % turnover [1]: 0% | Hepatocyte intrinsic clearance (CLint) [11]: 5.17 mL/min/kg | Hepatocyte intrinsic clearance (CLint) [12]: 3.67 mL/min/kg | MLM % turnover [13]: 0%
